Measured values published in patent US8986758B2, “Method for extracting a traditional herbal medicine component using a polished-rice steaming method” (Amorepacific Corporation, priority 2009, dated 2015).

Assays:
[1] = test system: C57BL/6 mouse-derived pigment cells (Mel-Ab cells); experiment: Effect of inhibiting melanin production using mouse pigment cells (Dooley's method); format: cell-based; conditions: 72 h, each sample at 10 ppm, Mel-Ab cells cultured 3 days, absorbance at 400 nm
Description: C57BL/6 mouse-derived pigment cells (Mel-Ab cells) (Dooley, T. P. et al., Skin pharmacol, 7, pp. 188-200) are cultured in a DMEM ([…]), to which 10% fetal bovine serum, 100 nM 12-O-tetradecanoylphorbol-13-acetate and 1 nM cholera toxin are added, at 37° C. under 5% CO2. The cultured Mel-Ab cells are released by using 0.25% trypsin-EDTA and incubated on a 24-well plate at a concentration of 10^5 cells/well. From the next day, each test sample is added to culture the cells continuously for 3 days.
The test samples used herein include hydroquinone, the extract of traditional herbal medicine of Comparative Example 1 and the extract of traditional herbal medicine obtained by polished-rice steaming method according to Example 1. Each sample is used at a concentration of 10 ppm. Hydroquinone is used as a positive control. Then, the culture medium is removed and the cells are washed with phosphate buffered saline (PBS). The cells are subjected to cell lysis using 1N sodium hydroxide and absorbance is determined at 400 nm. The absorbance measurement is used to calculate % inhibition of melanin production according to the following Mathematical Formula 1. The results are shown in the following Table 1 (Dooley's method). % Inhibition of melanin production=100−{(absorbance of each sample/absorbance of control)×100} [Mathematical Formula 1]

skin = experiment: Irritation test on panels sensitive to irritation; format: in vivo
Excerpt: Particularly, 15 panels sensitive to irritation, such as stinging, burning, etc., are subjected to a test for determining irritation feeling, including stinging, itch and dazzling. […] The results are shown in the following Table 2. <Evaluation Criteria> 0-0.4: No irritation 0.5-1.0: slight irritation 1.1-2.0: mild irritation 2.1-3.0: severe irritation

[2] = grade 0 to 3.0, 0.5 mL applied onto skin, 15 panels, 0-0.4 no, 0.5-1.0 slight, 1.1-2.0 mild, 2.1-3.0 severe irritation

SMILES	inhibition at 10 ppm [1] [%]	Average (skin; average of stinging and burning grades, grade 0 to 3.0, 0-0.4 no, 0.5-1.0 slight irritation)	Burning (skin; [2])	Stinging (skin; [2])	irritation (in words) (skin; summary of Table 2, 0.5 mL applied onto skin)
Oc1ccc(O)cc1 [Hydroquinone, hydroquinone]	58.9	–	–	–	–
O=c1cc(CO)occ1O [Kojic acid, kojic acid]	–	0.68	0.50	0.85	perceptible degree of irritation
